For orientation: pKi means the Ki on a negative log10 scale, so that one unit is a factor of ten. By inhibition is commonly meant the relative decrease from the control value, in per cent. For orientation: ED50 means the dose that gives a 50% effect, or the effect in half of the subjects. Usually inhibition in vivo stands for the share of the control response that was lost under treatment. What is called pIC50 is the negative decadic logarithm of the IC50, by convention in mol/L.

In data set [1] the target is Histamine H3 receptor (Homo sapiens, UniProt Q9Y5N1). Put plainly: biochemical.
Description: Displacement of [3H]N-alpha-methylhistamine from recombinant human histamine H3 receptor expressed in CHO-K1 cells by microbeta scintillation analysis
Data set [2] has as its target T1, MAO-A (Homo sapiens, UniProt P21397).
T1 sequence (P21397 whole entry): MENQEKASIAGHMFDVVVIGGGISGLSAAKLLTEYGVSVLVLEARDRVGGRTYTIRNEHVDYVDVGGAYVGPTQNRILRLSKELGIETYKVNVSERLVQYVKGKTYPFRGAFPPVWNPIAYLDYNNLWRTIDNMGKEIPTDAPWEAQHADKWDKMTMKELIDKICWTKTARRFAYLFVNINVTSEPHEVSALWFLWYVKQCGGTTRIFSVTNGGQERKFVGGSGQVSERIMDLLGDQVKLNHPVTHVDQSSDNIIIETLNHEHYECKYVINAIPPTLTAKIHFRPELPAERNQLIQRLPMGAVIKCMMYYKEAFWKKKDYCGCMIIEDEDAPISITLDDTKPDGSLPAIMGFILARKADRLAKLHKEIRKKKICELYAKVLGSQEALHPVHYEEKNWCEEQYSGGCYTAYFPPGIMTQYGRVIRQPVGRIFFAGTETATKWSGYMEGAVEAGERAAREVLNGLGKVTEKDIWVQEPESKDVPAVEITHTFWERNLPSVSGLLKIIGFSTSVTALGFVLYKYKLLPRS
Put plainly: Inhibition of recombinant human MAO-A expressed in baculovirus infected BTI cells at 10 uM using p-tyramine as substrate by fluorometric assay relative to control. As to conditions: probe p-tyramine.

For data set [3], the target named is Acetylcholinesterase (Electrophorus electricus) (UniProt O42275). Put plainly: Non-competitive inhibition of Electric eel AChE using ATCI as substrate incubated for 5 mins followed by substrate addition and measured after 5 mins by spectrophotometric based Cornish-Bowden plot analysis. As to conditions: time 10.0 min.
The subject of data set [4] is Mus musculus. The data set is described as follows: Analgesic activity in formalin-induced nociception CD-1 mouse model assessed as reduction in pain behaviour by measuring less licking of formalin injected hind paw compound administered intraperitoneally prior to formalin induction and measured during early phase (0 to 5 mins after formalin injection) by formalin test. It counts as functional. Conditions: CD-1, ip, time 0-5 min.

Data set [5] deals with Rattus norvegicus. Put plainly: Antiinflammatory activity against Wistar (Krf:WI) rat assessed as reduction in carragenan-induced paw edema at 30 mg/kg treated prior to carrageenan challenge and measured after 6 hrs by plethysmometry relative to control. Type of data set: functional.
The test system of data set [6] is Mus musculus. The data set is described as follows: Analgesic activity in formalin-induced nociception CD-1 mouse model assessed as reduction in pain behaviour by measuring less licking of formalin injected hind paw compound administered intraperitoneally prior to formalin induction and measured during late phase (15 to 30 mins after formalin injection) by formalin test. It counts as functional. Conditions: CD-1, ip, time 15-30 min.

For data set [7], the system named is Mus musculus. Put plainly: Antiallodynic activity in oxaliplatin-induced peripheral neuropathy pain CD-1 mouse model assessed as inhibition of early-phase tactile allodynia by measuring pain sensitivity threshold administered with compound intraperitoneally at 3 hrs after oxaliplatin stimulation and measured after 30 mins by von Frey test. Type of data set: functional, organism-based. Conditions: dose 15-30 mg/kg.

Data set [8] has as its system Rattus norvegicus. The data set is described as follows: Analgesic activity in carragenan-induced thermal hyperalgesia model of Wistar (Krf:WI) rat assessed as latency of nociceptive response for radiant heat stimulation at 30 mg/kg treated prior to carrageenan challenge and measured after 6 hrs (reference value: 43.2%). It counts as functional.
For data set [9], the system named is Rattus norvegicus. Put plainly: Analgesic activity in carragenan-induced thermal hyperalgesia model of Wistar (Krf:WI) rat assessed as latency of nociceptive response for radiant heat stimulation at 30 mg/kg treated prior to carrageenan challenge and measured after 3 hrs (reference value: 50.3%). Type of data set: functional.
In data set [10] the test system is Rattus norvegicus. The data set is described as follows: Antiinflammatory activity against Wistar (Krf:WI) rat assessed as reduction in carragenan-induced paw edema at 30 mg/kg treated prior to carrageenan challenge and measured after 1 hr by plethysmometry relative to control. Type of data set: functional.
The subject of data set [11] is Rattus norvegicus. Put plainly: Antiinflammatory activity against Wistar (Krf:WI) rat assessed as reduction in carragenan-induced paw edema at 30 mg/kg treated prior to carrageenan challenge and measured after 3 hrs by plethysmometry relative to control. Type of data set: functional.
Data set [12] deals with Mus musculus. The data set is described as follows: Antiallodynic activity in oxaliplatin-induced peripheral neuropathy pain CD-1 mouse model assessed as inhibition of early-phase tactile allodynia by measuring pain sensitivity threshold at 15 mg/kg administered with compound intraperitoneally at 3 hrs after oxaliplatin stimulation and measured after 30 mins by von Frey test (reference value: 61.2 %). It counts as functional. The arrangement: scale not given: the % may be the effect or the level left. Conditions: 0.5 h.

The subject of data set [13] is Rattus norvegicus. Put plainly: Analgesic activity in carragenan-induced thermal hyperalgesia model of Wistar (Krf:WI) rat assessed as latency of nociceptive response for radiant heat stimulation at 30 mg/kg treated prior to carrageenan challenge and measured after 24 hrs (reference value: 83.3%). It counts as functional.
For data set [14], the system named is Rattus norvegicus. The data set is described as follows: Antiinflammatory activity against Wistar (Krf:WI) rat assessed as reduction in carragenan-induced paw edema at 22.5 mg/kg treated prior to carrageenan challenge and measured after 3 hrs by plethysmometry relative to control. It counts as functional.
Data set [15] has as its system Mus musculus. The data set is described as follows: Antiallodynic activity in oxaliplatin-induced peripheral neuropathy pain CD-1 mouse model assessed as inhibition of late-phase tactile allodynia by measuring pain sensitivity threshold at 15 mg/kg administered with compound intraperitoneally at 7 days after oxaliplatin stimulation and measured after 30 mins by von Frey test (reference value: 65.3%). The arrangement: scale not given: the % may be the effect or the level left. Conditions: 0.5 h. Type of data set: functional.

The target in data set [16] is Acetylcholinesterase (Homo sapiens, UniProt P22303). Put plainly: Inhibition of recombinant human AChE using ATCI as substrate incubated for 5 mins followed by substrate addition and measured after 5 mins by spectrophotometric based Ellman's method.
The subject of data set [17] is Mus musculus. The data set is described as follows: Antiallodynic activity in oxaliplatin-induced peripheral neuropathy pain CD-1 mouse model assessed as inhibition of early-phase tactile allodynia by measuring pain sensitivity threshold at 30 mg/kg administered with compound intraperitoneally at 3 hrs after oxaliplatin stimulation and measured after 30 mins by von Frey test (reference value: 61.2 %). It counts as functional. Further details: scale not given: the % may be the effect or the level left. As to conditions: 0.5 h.

For data set [18], the system named is Mus musculus. Put plainly: Antiallodynic activity in oxaliplatin-induced peripheral neuropathy pain CD-1 mouse model assessed as inhibition of late-phase tactile allodynia by measuring pain sensitivity threshold at 22.5 mg/kg administered with compound intraperitoneally at 7 days after oxaliplatin stimulation and measured after 30 mins by von Frey test (reference value: 65.3%). It counts as functional. Further details: scale not given: the % may be the effect or the level left. As to conditions: 0.5 h.

Data set [19] deals with Acetylcholinesterase (Electrophorus electricus) (UniProt O42275). Put plainly: Non-competitive inhibition of Electric eel AChE using ATCI as substrate incubated for 5 mins followed by substrate addition and measured after 5 mins by spectrophotometric based Lineweaver-Burk plot analysis. Conditions: time 10.0 min.
The test system of data set [20] is Rattus norvegicus. Put plainly: Antiinflammatory activity against Wistar (Krf:WI) rat assessed as reduction in carragenan-induced paw edema at 22.5 mg/kg treated prior to carrageenan challenge and measured after 24 hrs by plethysmometry relative to control. It counts as functional.
The subject of data set [21] is Mus musculus. Put plainly: Antiallodynic activity in oxaliplatin-induced peripheral neuropathy pain CD-1 mouse model assessed as inhibition of early-phase tactile allodynia by measuring pain sensitivity threshold at 22.5 mg/kg administered with compound intraperitoneally at 3 hrs after oxaliplatin stimulation and measured after 30 mins by von Frey test (reference value: 61.2 %). Type of data set: functional. The arrangement: scale not given: the % may be the effect or the level left. Conditions: 0.5 h.

SMILES strings stand for the structures. pIC50, pKi: −log10 of the molar value. Activity calls are given as the source filed them.

Chain of Acetylcholinesterase (Electrophorus electricus) (O42275 24-633 limits assumed): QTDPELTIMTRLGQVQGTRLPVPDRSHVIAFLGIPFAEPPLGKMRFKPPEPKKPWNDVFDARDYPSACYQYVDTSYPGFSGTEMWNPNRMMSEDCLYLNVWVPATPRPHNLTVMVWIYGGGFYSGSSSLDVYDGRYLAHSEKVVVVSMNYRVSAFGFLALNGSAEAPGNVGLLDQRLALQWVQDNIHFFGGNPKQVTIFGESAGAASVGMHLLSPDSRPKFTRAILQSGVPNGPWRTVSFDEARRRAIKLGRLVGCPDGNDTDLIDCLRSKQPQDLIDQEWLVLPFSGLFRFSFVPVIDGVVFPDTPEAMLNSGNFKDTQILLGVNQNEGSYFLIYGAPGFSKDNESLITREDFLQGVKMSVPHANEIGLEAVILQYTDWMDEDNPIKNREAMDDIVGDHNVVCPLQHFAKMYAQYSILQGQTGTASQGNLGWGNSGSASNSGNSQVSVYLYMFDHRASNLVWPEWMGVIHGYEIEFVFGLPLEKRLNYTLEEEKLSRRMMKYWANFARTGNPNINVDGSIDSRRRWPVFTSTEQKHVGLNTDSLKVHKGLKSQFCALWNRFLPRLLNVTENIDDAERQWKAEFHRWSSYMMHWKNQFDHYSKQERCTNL
Chain of Histamine H3 receptor (Q9Y5N1 whole entry): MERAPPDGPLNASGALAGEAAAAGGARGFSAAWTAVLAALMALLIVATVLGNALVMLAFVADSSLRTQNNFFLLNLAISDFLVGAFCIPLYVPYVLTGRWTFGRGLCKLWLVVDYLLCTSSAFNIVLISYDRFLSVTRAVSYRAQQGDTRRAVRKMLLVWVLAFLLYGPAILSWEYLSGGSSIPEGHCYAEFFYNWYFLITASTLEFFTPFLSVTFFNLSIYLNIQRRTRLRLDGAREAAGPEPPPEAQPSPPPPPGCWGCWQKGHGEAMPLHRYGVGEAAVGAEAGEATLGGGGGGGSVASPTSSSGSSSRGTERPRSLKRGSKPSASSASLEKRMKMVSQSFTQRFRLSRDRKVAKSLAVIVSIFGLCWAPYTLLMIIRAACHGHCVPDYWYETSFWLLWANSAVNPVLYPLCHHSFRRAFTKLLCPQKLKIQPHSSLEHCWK
Chain of Acetylcholinesterase (P22303 whole entry): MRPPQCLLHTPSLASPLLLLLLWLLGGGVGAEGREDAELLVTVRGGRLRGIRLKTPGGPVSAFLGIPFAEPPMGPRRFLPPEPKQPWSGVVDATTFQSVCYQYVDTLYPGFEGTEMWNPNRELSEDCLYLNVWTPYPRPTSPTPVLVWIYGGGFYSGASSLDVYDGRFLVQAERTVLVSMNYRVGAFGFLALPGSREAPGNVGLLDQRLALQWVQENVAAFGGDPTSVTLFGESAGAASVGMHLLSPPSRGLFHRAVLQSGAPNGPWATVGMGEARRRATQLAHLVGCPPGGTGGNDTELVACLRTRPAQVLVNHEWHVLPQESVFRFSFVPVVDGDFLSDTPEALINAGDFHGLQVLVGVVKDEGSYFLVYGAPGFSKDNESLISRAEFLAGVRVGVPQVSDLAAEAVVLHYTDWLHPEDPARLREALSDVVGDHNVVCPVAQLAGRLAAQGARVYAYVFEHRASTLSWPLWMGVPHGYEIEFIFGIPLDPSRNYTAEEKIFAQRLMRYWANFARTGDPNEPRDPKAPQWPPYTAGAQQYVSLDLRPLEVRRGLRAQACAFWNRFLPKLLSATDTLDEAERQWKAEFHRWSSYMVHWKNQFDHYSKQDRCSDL

On to `O=c1c2ccccc2oc2ccc(OCCCCCN3CCCCCC3)cc12`, for which, in data set [1], the pKi is 6.77. In addition, the inhibition at 10 µM in data set [2] was less than 50%. Moreover, the inhibition result in data set [3] and in data set [19] was “Active” in each case. Besides, the ED50 in data set [4] amounted to 24.7 mg/kg; in data set [6] it was 11.3 mg/kg. Also, the inhibition in vivo at 30 mg/kg in [5] was found to be 44.9%; in [10] it was 77.9%; in [11] it was 52.1%. Moreover, the Activity entry in data set [7] was “Dose-dependent effect”; in [8] it was 92%; in [9], 96%; in [12] it was 88.5%; in [13] it was 116%; in data set [15] it was 85.9%. Also, the figures for the Activity in data set [17], in [18] and in data set [21] were 95.6%, 88.5% and 90.6%, respectively. Moreover, the inhibition in vivo at 22.5 mg/kg amounted to 26.5% in [14] and 22.4% in [20]. The pIC50 in data set [16] is 6.41.
